Laboratory results taken from PMC9046087, “Structural basis of tethered agonism of the adhesion GPCRs ADGRD1 and ADGRF1” (Nature, 2022).
Residue numbers refer to the chain shown, from its start. Ends that are not written are not given here.

T1: ADGRF1 (Homo sapiens, UniProt Q5T601)
T1 construct: Flag (N); expressed in transfected cells; host or cells: HEK293F
T1 sequence (Q5T601 20-910): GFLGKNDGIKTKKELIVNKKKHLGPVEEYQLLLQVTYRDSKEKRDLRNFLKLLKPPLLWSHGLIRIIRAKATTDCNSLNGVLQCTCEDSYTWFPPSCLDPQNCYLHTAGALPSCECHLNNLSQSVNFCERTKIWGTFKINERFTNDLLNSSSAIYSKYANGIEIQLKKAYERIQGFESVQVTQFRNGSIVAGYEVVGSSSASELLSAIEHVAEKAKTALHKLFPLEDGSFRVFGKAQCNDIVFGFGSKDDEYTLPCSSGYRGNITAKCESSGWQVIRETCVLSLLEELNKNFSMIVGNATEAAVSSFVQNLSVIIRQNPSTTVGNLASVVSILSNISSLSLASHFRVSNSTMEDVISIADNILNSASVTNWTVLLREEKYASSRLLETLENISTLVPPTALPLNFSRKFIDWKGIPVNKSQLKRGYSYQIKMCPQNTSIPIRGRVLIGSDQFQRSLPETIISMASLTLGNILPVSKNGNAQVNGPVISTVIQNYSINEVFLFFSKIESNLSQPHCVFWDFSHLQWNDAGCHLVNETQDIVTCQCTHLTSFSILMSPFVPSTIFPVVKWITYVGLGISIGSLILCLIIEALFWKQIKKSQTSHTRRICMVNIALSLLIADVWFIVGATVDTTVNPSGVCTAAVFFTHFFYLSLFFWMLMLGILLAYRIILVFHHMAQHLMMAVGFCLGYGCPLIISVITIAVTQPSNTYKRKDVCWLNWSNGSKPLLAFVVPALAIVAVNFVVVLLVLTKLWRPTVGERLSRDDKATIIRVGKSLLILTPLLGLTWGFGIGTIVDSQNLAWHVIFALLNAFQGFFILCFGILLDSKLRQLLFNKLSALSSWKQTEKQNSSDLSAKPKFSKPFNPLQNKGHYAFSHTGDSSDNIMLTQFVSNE

T2: ADGRD1 (Homo sapiens, UniProt Q6QNK2)
T2 construct: Flag (N); expressed in transfected cells; host or cells: HEK293F
T2 sequence (Q6QNK2 26-874): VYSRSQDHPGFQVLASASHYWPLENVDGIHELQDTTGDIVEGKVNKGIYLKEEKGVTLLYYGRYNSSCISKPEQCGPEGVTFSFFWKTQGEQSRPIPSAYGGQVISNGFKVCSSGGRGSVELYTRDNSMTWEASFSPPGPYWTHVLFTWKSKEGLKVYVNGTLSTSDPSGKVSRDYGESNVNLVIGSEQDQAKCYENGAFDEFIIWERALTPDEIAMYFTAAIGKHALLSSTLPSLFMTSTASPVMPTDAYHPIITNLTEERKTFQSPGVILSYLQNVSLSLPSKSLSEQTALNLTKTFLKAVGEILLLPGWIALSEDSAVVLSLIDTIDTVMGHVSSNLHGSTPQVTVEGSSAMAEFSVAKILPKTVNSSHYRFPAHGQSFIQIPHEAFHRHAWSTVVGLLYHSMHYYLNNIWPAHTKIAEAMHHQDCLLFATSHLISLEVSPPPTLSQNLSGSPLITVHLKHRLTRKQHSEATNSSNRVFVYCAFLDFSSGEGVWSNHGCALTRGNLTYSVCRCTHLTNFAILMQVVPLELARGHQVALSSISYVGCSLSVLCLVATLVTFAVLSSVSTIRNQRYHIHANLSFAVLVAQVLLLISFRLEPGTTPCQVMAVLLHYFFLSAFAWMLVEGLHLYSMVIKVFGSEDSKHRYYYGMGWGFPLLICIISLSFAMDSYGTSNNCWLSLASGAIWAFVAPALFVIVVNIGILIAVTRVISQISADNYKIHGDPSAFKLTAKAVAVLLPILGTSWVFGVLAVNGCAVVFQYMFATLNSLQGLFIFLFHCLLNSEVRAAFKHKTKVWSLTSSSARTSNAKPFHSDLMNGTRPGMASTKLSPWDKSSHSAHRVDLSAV

B1: W804^6.53bA (protein, UniProt Q5T601 20-910, looked up, variant W804A)
Adhesion G-protein coupled …: T1 sequence (Q5T601 20-910) with W785A
B2: G702^4.45bY (protein, UniProt Q5T601 20-910, looked up, variant G702Y)
Adhesion G-protein coupled …: T1 sequence (Q5T601 20-910) with G683Y
B3: H820^7.39bA (protein, UniProt Q5T601 20-910, looked up, variant H820A)
Adhesion G-protein coupled …: T1 sequence (Q5T601 20-910) with H801A
B4: V689^ICL2A (protein, UniProt Q5T601 20-910, looked up, variant V689A)
Adhesion G-protein coupled …: T1 sequence (Q5T601 20-910) with V670A
B5: M675^3.47bA (protein, UniProt Q5T601 20-910, looked up, variant M675A)
Adhesion G-protein coupled …: T1 sequence (Q5T601 20-910) with M656A
B6: N827^7.46bA (protein, UniProt Q5T601 20-910, looked up, variant N827A)
Adhesion G-protein coupled …: T1 sequence (Q5T601 20-910) with N808A

Columns and labels:
[1] = biological target: T1, ADGRF1; test: BRET assay using TRUPATH biosensors, Gi activation of ADGRF1; type: cell-based; conditions: ADGRF1 WT; for Emax (mean ± s.e.m.): n = 3; for EC50: n = 3, read-out: pEC50 (mean ± s.e.m.) (converted)
Method: (§1) To study the synthetic stalk peptide-induced G protein activation of ADGRD1 and ADGRF1, a BRET assay using TRUPATH biosensors was conducted to measure the proximal interaction between RLuc8 fused to the Gα subunit and GFP2 fused to the Gγ subunit. The TRUPATH suite of biosensors was obtained from Addgene (Addgene kit no. 1000000163) as a gift from B. Roth, including GαsS-RLuc8, Gαi1-RLuc8, Gβ3 and Gγ9-GFP2 as previously described.
(§2) The wild-type or mutant ADGRD1 and ADGRF1 were transiently co-transfected with plasmids encoding Gα-RLuc8 (GαsS-RLuc8 for Gs activation assay; Gαi1-RLuc8 for Gi activation assay), Gβ3 and Gγ9-GFP2 at a ratio of 2:1:1:1 (receptor plasmid, 800 ng; G protein subunit plasmids, 400 ng for each) in 2 ml HEK293F cells at a density of 1.2 × 10^6 cells per ml. Cell cultivation and receptor surface expression measurement were performed as described above. The cells were plated into 96-well white plates (40,000 cells per well) in 60 μl of assay buffer and incubated at 37 °C for 30 min. Then 10 μl of freshly prepared 50 μM coelenterazine 400a (Nanolight Technologies) was added. […] The cells were stimulated with 30 μl of synthetic stalk peptide at different concentrations and the BRET signals were monitored continuously five times. The last measurements were used in data analysis. The BRET ratios were calculated as the ratio of the GFP2 emission to RLuc8 emission.

[2] = biological target: T2, ADGRD1; test: BRET assay using TRUPATH biosensors, G protein activation of ADGRD1; type: cell-based; conditions: Gs, ADGRD1 WT, n = 3; for EC50: read-out: pEC50 (mean ± s.e.m.) (converted)
Method: as §1, §2

[3] = test system: ADGRF1; test: Cell-surface expression by flow cytometry, ADGRF1; type: cell-based, human; conditions: anti-Flag antibody, three independent measurements in duplicate
Method: The wild-type ADGRD1 and ADGRF1 and mutants used in functional studies were constructed into a pTT5 vector with a Flag tag at the N terminus for receptor expression measurement. The basal activity of ADGRD1 and ADGRF1 in mediating Gs signalling was measured by a cAMP accumulation assay using a LANCE Ultra cAMP detection kit (PerkinElmer) following the manufacturer’s instruction. In brief, 2 ml HEK293F cells (Invitrogen; cells were routinely tested for mycoplasma contamination) at a density of 1.2 × 10^6 cells per ml were transiently transfected with 2,000 ng plasmid of the wild-type or mutant receptor and cultured at 37 °C for 48 h with 5% CO2 atmosphere in a shaker shaking at 220 rpm. After collection, the cell-surface expression of the receptors was measured by incubating 10 μl cells with 15 μl monoclonal anti-Flag M2-FITC antibody (Sigma; 1:120 diluted in TBS supplemented with 4% BSA and 20% viability staining solution 7-AAD (Invitrogen)) at 4 °C for 20 min. After incubation, 175 μl TBS buffer was added and the fluorescent signal was measured using a flow cytometry reader (Guava easyCyte HT, Millipore).

[4] = ADGRF1 constructs (pF1 Gi part of table)

Molecule | Emax (mean ± s.e.m.) [1] | EC50 [1] | Cell-surface expression (% of WT) [3, 4] | further results
CC[C@H](C)[C@H](NC(=O)[C@H](C)NC(=O)[C@H](Cc1ccccc1)NC(=O)[C@H](CC(N)=O)NC(=O)[C@@H](N)[C@@H](C)O)C(=O)N[C@@H](CC(C)C)C(=O)N[C@@H](CCSC)C(=O)N[C@@H](CCC(N)=O)C(=O)N[C@H](C(=O)N[C@H](C(=O)N1CCC[C@H]1C(=O)N[C@@H](CC(C)C)C(=O)N[C@@H](CCC(=O)O)C(=O)O)C(C)C)C(C)C [pD1] | 82 ± 8 % of WT | 132 nM |  | 
TNAAILMQVVPLE [pD1 (F547^S3A)] |  |  |  | Emax (mean ± s.e.m.) [2]: 69 ± 13 % of WT; EC50 [2]: 724 nM
TNFAIAMQVVPLE [pD1 (L550^S6A)] |  |  |  | Emax (mean ± s.e.m.) [2]: 53 ± 5 % of WT; EC50 [2]: 166 nM
TNFAILAQVVPLE [pD1 (M551^S7A)] |  |  |  | Emax (mean ± s.e.m.) [2]: 79 ± 10 % of WT; EC50 [2]: 263 nM
TSASILMSPFVP [pF1 (F569^S3A)] | 108 ± 7 % of WT | 380 nM |  | 
TSFSIAMSPFVP [pF1 (L572^S6A)] | 101 ± 12 % of WT | 676 nM |  | 
TSFSILASPFVP [pF1 (M573^S7A)] | 87 ± 11 % of WT | 501 nM |  | 
B1 |  |  | 93 ± 4 % of WT | 
B2 |  |  | 87 ± 12 % of WT | Cell-surface expression (% of WT) ([3]; ADGRF1 constructs, in parallel to A8-induced Gi activation): 94 ± 1 % of WT; Cell-surface expression (% of WT) ([3]; ADGRF1 constructs, in parallel to A8-induced Gs activation): 104 ± 2 % of WT
B3 |  |  | 77 ± 1 % of WT | 
B4 |  |  | 112 ± 3 % of WT | Cell-surface expression (% of WT) ([3]; ADGRF1 constructs, in parallel to pF1-induced Gs activation): 114 ± 10 % of WT
B5 |  |  | 107 ± 2 % of WT | 
B6 |  |  | 97 ± 21 % of WT | 
